# Measured values: patent publication US20160175241A1, “COMPOSITION FOR SKIN ANTI-AGEING TREATMENT” (POLICHEM SA, priority 2013, published 2016)
# What was measured:
# [1] = test system: Reactive oxygen species (ROS) measured on keratinocytes after exposure to Ultraviolet light A (UVA); assay: ROS formation in keratinocytes after UVA exposure (DCA fluorescence); type: cell-based; settings: Homo sapiens, Keratinocyte, light or radiation study, 0.15 mg/ml (positive control)
# Experimental: To the test the different antioxidant activity of the composition according to the Example 1 versus the Comparative Compositions 2-5 of the Example 2, they were tested at different concentrations (0.500-0.016 mg/ml) on Reactive oxygen species (ROS) measured on keratinocytes after exposure to Ultraviolet light A (UVA), with and without the tested sample, evaluating the cell viability after UVA stress by Neutral red uptake (NRU) test: cell survival assay using cultured human keratinocytes in monolayer cultures with and without the tested sample.
# Human primary keratinocytes come from paediatric foreskins, with ethic committee's permission, from pre-planned routine surgery. The epidermis was separated from dermis by incubation with […] and trypsinized to generate single cell suspension.
# Keratinocytes were cultivated in Dulbecco's modified Eagle's and Ham's F12 media (3:1) enriched with 10% foetal calf serum (v/v) and specific enrichments.
# These cells multiply in culture until a cell monolayer is reached. […] Once a confluence of 60-70% has been reached, fresh medium is added with scalar dilutions of the tested sample. Non-treated cells are used as negative controls. At this stage the cell cultures were treated with different dilutions of the test compound and of the controls to obtain final concentrations ranging from 0.5 to 0.016 mg/ml. For each dilution, three replicate tests were performed. The product was dissolved in the culture medium. […] The cell vitality is determined after UVA exposure and without UV exposure.
# After having exposed the cells to the tested sample, the cell culture medium is removed and the cells are washed in PBS. […] DCA is reacting with free radicals in the medium, originating a fluorescent derivative, and the fluorimeter reading allows obtaining a quantitative data related to the ROS content in the cells.
# After suitable incubation, the DCA solution has been discharged and the cells have then been exposed for different times to UVA irradiation and soon after read in the fluorimeter, as described (Toxicol. Letters 1997-93:47-54).
# [2] = test system: skin structure and firmness; settings: two concentrations, 0.1% and 1%; cited from earlier work
SMILES,inhibition at 150 µg/mL ([1]; 4′ UVA (1 J/cm2)) [%],inhibition at 150 µg/mL ([1]; 8′ UVA (2 J/cm2)) [%],inhibition at 150 µg/mL ([1]; 12′ UVA (3 J/cm2)) [%],improving skin structure and firmness [2]
O=C1O[C@H]([C@@H](O)CO)C(O)=C1O [Vitamin C],19.6,13.4,14.8,
COc1cc(O)c(CC=C(C)C)c(O)c1C(=O)/C=C/c1ccc(O)cc1 [xanthohumol],,,,resulted efficacious
